According to patent US6428983B1, “Histone deacetylase as target for antiprotozoal agents” (Merck & Co., priority 1995, dated 2002):

Key:
HeLa cell histones = assay: Histone acetylation state in HeLa cells (AUT gel electrophoresis); assay type: cell-based, human; conditions: HeLa cells treated 4 hrs, FIG. 1, relative to untreated cells
Method: About 2×10^7 HeLa cells growing at 37 C were treated with various compounds in the standard tissue culture medium (MEM containing 10% fetal calf serum) for 4 hrs. Cells were then removed from the flask by scraping in PBS in a total volume of about 10 mls. The cells were washed twice in PBS and resuspended in about 3 mls lysis buffer (Lysis buffer; 0.45% Nonidet® P-40, 10 mM tris, 10 mM NaCl, 5 mM MgCl, 0.1 mM EGTA, 0.1 mM PMSF). The suspension was mixed by vortexing for 10 seconds, incubated on ice for 15 minutes and nuclei were pelleted by centrifugation through a 1 ml cushion of 30% sucrose in lysis buffer at 1300×g for 10 minutes. The supernatant was discarded and the nuclei were then resuspended in 1.0 ml water. H2SO4 was added to a final concentration of 0.4M and the nuclear suspension was incubated on ice for 30 min. and then pelleted by centrifugation at 13,000×g for 10 minutes. The pellets were discarded, and ten volumes of ice cold acetone was added to the supernatant proteins and left overnight at −20° C. to precipitate soluble proteins. These proteins (predominantly histones) were pelleted by centrifugation at 10,000×g for 15 minutes at 4° C. and resuspended in AUT sample buffer (Sample buffer: 0.9M acetic acid, 0.02% w/v methyl green) in preparation for gel electrophoresis.
Acid urea triton (AUT) polyacrylamide gels were performed according to the methods of Alfageme et al (1974) J. Biol. Chem. 249, 3729, with modifications as described in Lennox and Cohen (Methods in Enzymology, 170, 532-549). For optimal resolution of HeLa cell and Plasmodium falciparum histones the separation gel contained 7.5M urea, 12% acrylamide, 0.38% Triton® X 100, 0.08% bis acrylamide, and 0.87M acetic acid. The loading gels contained 7.5M urea, 0.37% Triton X 100, 6% acrylamide, 0.04% bis acrylamide and 0.87M acetic acid. […] Gels were either stained with Coomassie Brilliant Blue R in 7% acetic acid, 20% methanol and then destained in 7% acetic acid and 20% methanol, or treated with Enlightening (from New England Nuclear), dried and radiolabel detected by fluorography.

P. falciparum histones = assay: Histone acetylation state in P. falciparum (14C acetate labeling, AUT gel); assay type: cell-based; conditions: infected red blood cells, 14C sodium acetate, 2 hours, FIG. 2
Method: Acid urea triton (AUT) polyacrylamide gels were performed according to the methods of Alfageme et al (1974) J. Biol. Chem. 249, 3729, with modifications as described in Lennox and Cohen (Methods in Enzymology, 170, 532-549). For optimal resolution of HeLa cell and Plasmodium falciparum histones the separation gel contained 7.5M urea, 12% acrylamide, 0.38% Triton® X 100, 0.08% bis acrylamide, and 0.87M acetic acid. The loading gels contained 7.5M urea, 0.37% Triton X 100, 6% acrylamide, 0.04% bis acrylamide and 0.87M acetic acid. Gels were run in 1M acetic acid. Gels were pre-electrophoresed at 350V for 1 hour and run at 450V for 3.5 hours. Gels were either stained with Coomassie Brilliant Blue R in 7% acetic acid, 20% methanol and then destained in 7% acetic acid and 20% methanol, or treated with Enlightening (from New England Nuclear), dried and radiolabel detected by fluorography.
Approximately 1×10^9 P. falciparum infected red blood cells (about 60% parasitized) were resuspended in 10 ml of RPMI 1640 containing various concentrations of test compounds and 250 μCi ^14C sodium acetate and incubated at 37° C. for 2 hours. The cells were then washed 3 time with PBS and histones were prepared as described below.
Histones were prepared according to the method of Cary et al (1994) Parasitology Research, 80, 255-258. […]

[1] = system: histone deacetylase (E. tenella extract); assay: Histone deacetylase inhibition assay (Assay 1), E. tenella extract; assay type: biochemical, Eimeria tenella
Method: (§1) The standard assay contained in a total volume of 40 μL: 400 nmol HEPES-sodium, pH 7.4, 100 pmol of the substrate [AcGly-Ala-Lys(ε-^14C-Ac)-Arg-His-Arg-Lys(ε-^14C-Ac)-ValNH2] (see Kervabon et al (1979) FEBS Letters 106: 93-96) having a specific activity of approx. 114 mCi/mmol, and a source of histone deacetylase (HDAase) activity. The amount of HDAase added was chosen such that ≦20% of the substrate was consumed during the assay. The reaction was initiated by enzyme addition and allowed to proceed for 60 min at 41°. At 60 min, the reaction was terminated by the addition of a 50% slurry of Amberlite® AG 50W×4 cation exchange resin, sodium form (200-400 mesh) in 25 mM sodium acetate buffer, pH 4.2 (200 μL). The resin binds both remaining substrate and the (partially) deacetylated peptidyl products. The quenched reaction was then incubated for at least 30 min at 25° with occasional mixing, diluted with additional 25 mM sodium acetate buffer, pH 4.2 (760 μL; final volume 1000 μL), incubated for a minimum of an additional 30 min at 25° with occasional mixing, and then centrifuged at 10,000×g for 1 min. An aliquot of the supernatant (800 μL) containing the enzymatically released ^14C-acetate was removed, mixed with Aquasol 2 liquid scintillation counter (LSC) cocktail (10 mL), and counted in a Beckman model LS-5801 LSC. […]

P. falciparum = assay: In vitro antiparasitic activity against P. falciparum; assay type: cell-based
Text: (2) Generally following the procedure described in Desjardins et al, “Quantitative Assessment of Antimalarial Activity In Vitro by a Semiautomated Microdilution Technique” Antimicrobial Agents and Chemotherapy 1979, 16:710-718.

[2] = system: histone deacetylase (chicken liver lysate); assay: Competitive binding assay with 3H-N-desmethoxyapicidin, chick liver S100 lysate; conditions: 3H-N-desmethoxyapicidin ligand
Method: Chick Liver. Livers from 3-5 three week old chickens are collected, rinsed in ice cold phosphate buffered saline (pH 7.4), diced into small pieces and rinsed again 3-4 times with ice cold 50 mM N-2-hydroxyethylpiperazine-N′-2-ethanesulfonic acid (HEPES) (pH 7.4) containing 0.1 mM phenylmethanesulfonyl fluoride (PMSF). The tissue is then resuspended in HEPES buffer, homogenized in a polytron homogenizer and centrifuged at 3000×g for 10 min. The supernatant is then subjected to an additional 100,000 g centrifugation for 1 hour. The pellet and the floating layer of lipid are discarded and the supernatant, referred to as the chick liver S100 fraction, is retained for binding assays. After estimating the protein concentration, the supernatant (S100) is aliquoted and frozen at −80 C.
(§2) Each assay tube contains a final volume of 1 ml with 1.3 ng/ml of ^3H-N-desmethoxyapicidin, 150-200 μg of the appropriate S100 supernatant and concentrations of potential HDA inhibitors from 0.001-10 μg/ml.
(§3) (i) labeled substrate. […]
(§4) Stock solutions of potential HDA inhibitors (ii) are diluted into 50 mM HEPES/Triton® buffer to achieve a final concentration of test compound in the range of 0.001-10 μM. ^3H-N-desmethoxyapicidin is added to a final concentration of 1.3 ng/ml. […] The filter is then dried and counted in scintillant.

[3] = system: histone deacetylase (chicken liver extracts); assay: Histone deacetylase inhibition assay (Assay 1), chicken liver extract; assay type: biochemical; conditions: Assay 1, chicken liver extracts
Method: as §1

[4] = molecular target: histone deacetylase (E. tenella lysate); assay: Competitive binding assay with 3H-N-desmethoxyapicidin, E. tenella S100 lysate; conditions: 3H-N-desmethoxyapicidin ligand
Method: E. tenella oocysts. Approximately 2×10^9 E. tenella oocysts are suspended in 5 ml of PBS/0.1 mM PMSF, 4 mls of an equal mixture (vol/vol) of 4.0 and 1.0 mm glass beads is added. The glass bead-oocyst mixture is then shaken for 20 minutes to cause disruption of the oocysts. The efficiency of breakage is checked microscopically. The resulting homogenate is separated from the glass beads and centrifuged at 3000×g for 10 min. The supernatant is then subjected to an additional centrifugation at 100,000 g for 1 hr. The pellet is discarded and the supernatant, referred to as the E. tenella S100 fraction, is retained for binding assays. After estimating the protein concentration, the supernatant (S100) is aliquoted and frozen at −80 C.
as §2, §3, §4

E. tenella = assay: In vitro antiparasitic activity against E. tenella; assay type: cell-based, Eimeria tenella
Text: (1) Generally following the procedure described in Crane, Schmatz, Stevens, Habbersett and Murray. Eimeria tenella: in vitro development in irradiated bovine kidney cells.(1984) Parasitology 88: 521-530.

C[C@@H]1NC(=O)[C@H]2CCCN2C(=O)[C@H](CCCCCC(=O)[C@@H]2CO2)NC(=O)[C@@H](C)NC1=O [HC-toxin]
Hyperacetylation of HeLa cell histones (shift in histone gel profile) (HeLa cell histones): cause a distinct shift in the histone gel profiles

CCC(=O)CCCCC[C@@H]1NC(=O)[C@H]2CCCCN2C(=O)[C@H]([C@@H](C)CC)NC(=O)[C@H](Cc2cn(OC)c3ccccc23)NC1=O [apicidin, Apicidin]
Hyperacetylation of P. falciparum histones (P. falciparum histones): cause hyperacetylation
Hyperacetylation of HeLa cell histones (shift in histone gel profile) (HeLa cell histones): cause a distinct shift in the histone gel profiles

CC(/C=C/C(=O)O)=C\[C@@H](C)C(=O)c1ccc(N(C)C)cc1 [trichostatic acid]
IC50 in enzyme inhibition assay, E. tenella extract [1]: inactive
IC50 against P. falciparum (P. falciparum): not active
IC50 in binding assay, chicken liver lysate [2]: no activity
IC50 in enzyme inhibition assay, chicken liver extract [3]: inactive
IC50 [4]: > 1000 nM
IC50 in binding assay, E. tenella lysate [4]: no activity
minimum inhibitory concentration against E. tenella (E. tenella): not active

CC(/C=C/C(=O)NO)=C\[C@@H](C)C(=O)c1ccc(N(C)C)cc1 [trichostatin]
Hyperacetylation of P. falciparum histones (P. falciparum histones): cause hyperacetylation
Hyperacetylation of HeLa cell histones (shift in histone gel profile) (HeLa cell histones): cause a distinct shift in the histone gel profiles
